According to patent US10315992B2, “Tetracyline compounds” (Tetraphase Pharmaceuticals, Inc., priority 2012, dated 2019):
In brackets after ≈: the same amount, converted by molar mass. Read-outs that look alike come from different tables or passages of the source.

Legend:
[1] = system: Enterococcus faecalis EF327 (wound isolate, tet(M)); experiment: MIC assay, EF327; format: cell-based
[2] = system: Pseudomonas aeruginosa PA669 (2009 tracheal aspirate isolate); experiment: MIC assay, PA669; format: cell-based
[3] = system: Escherichia coli EC107 (ATCC 25922); experiment: MIC assay, EC107; format: cell-based
[4] = system: Enterobacter cloacae EC108 (ATCC 13047); experiment: MIC assay, EC108; format: cell-based; conditions: ATCC13047, read-out: MIC ECI 108 13047
EC 880 ipxC = experiment: MIC assay, EC880; format: cell-based
Description: (§1) Minimum Inhibitory Concentration (MIC) Assay
(§2) The assays were run as follows.

EC 882 imp = experiment: MIC assay, EC882; format: cell-based; conditions: read-out: MIC EC 882 imp
Description: as §1, §2

[5] = system: Pseudomonas aeruginosa PA555 (ATCC BAA-47, PAO1); experiment: MIC assay, PA555; format: cell-based
[6] = system: Proteus mirabilis PM385 (urine ESBL+ isolate); experiment: MIC assay, PM385; format: cell-based
[7] = system: Staphylococcus aureus SA101 (ATCC 29213, MSSA); experiment: MIC assay, SA101; format: cell-based
[8] = system: Streptococcus pneumoniae SP106 (ATCC 49619); experiment: MIC assay, SP106; format: cell-based; conditions: ATCC49619, read-out: MIC SP 106 49619
[9] = system: Acinetobacter baumannii AB110 (ATCC 19606); experiment: MIC assay, AB110; format: cell-based; conditions: ATCC19606, read-out: MIC AB 110 19606
[10] = system: Enterococcus faecalis EF159 (tet(M)); experiment: MIC assay, EF159; format: cell-based
[11] = system: Haemophilus influenzae HI262 (tetracycline-resistant, ampicillin-resistant); experiment: MIC assay, HI262; format: cell-based; conditions: read-out: MIC HI 262 33929
[12] = system: Escherichia coli EC878 (MG1655 tolC::kan); experiment: microbe, parasite or virus in culture; format: cell-based
[13] = system: Pseudomonas aeruginosa PA111 (ATCC 27853); experiment: MIC assay, PA111; format: cell-based; conditions: ATCC27853, read-out: MIC PA 111 27853
[14] = system: Acinetobacter baumannii AB250 (cystic fibrosis isolate, MDR); experiment: MIC assay, AB250; format: cell-based
[15] = system: Staphylococcus aureus SA100 (ATCC 13709, MSSA, Smith strain); experiment: MIC assay, SA100; format: cell-based; conditions: read-out: MIC SA 100 13709
[16] = system: Staphylococcus aureus SA158 (tetracycline-resistant tet(K)); experiment: MIC assay, SA158; format: cell-based
PA 884 35151 = experiment: MIC assay, PA884; conditions: Pseudomonas aeruginosa, read-out: MIC PA 884 351 51
Description: (§3) MICs were determined according to the Clinical and Laboratory Standards Institute (CLSI) guidances (e.g., CLSI. Performance standards for antimicrobial susceptibility testing; nineteenth information supplement. CLSI document M100-S19, CLSI, 940 West Valley Road, Suite 1400, Wayne, Pa. 19087-1898, USA, 2009). Briefly, frozen bacterial strains were thawed and subcultured onto Mueller Hinton Broth (MHB) or other appropriate media (Streptococcus requires blood and Haemophilus requires hemin and NAD). Following incubation overnight, the strains were subcultured onto Mueller Hinton Agar and again incubated overnight. […] Isolated colonies were selected to prepare a starting inoculum equivalent to a 0.5 McFarland standard. […] Test compounds were prepared by dilution in sterile water to a final concentration of 5.128 mg/mL. Antibiotics (stored frozen, thawed and used within 3 hours of thawing) and compounds were further diluted to the desired working concentrations.
(§4) The assays were run as follows. Fifty μL of MHB was added to wells 2-12 of a 96-well plate. One hundred μL of appropriately diluted antibiotics was added to well 1. Fifty μL of antibiotics was removed from well 1 and added to well 2 and the contents of well 2 mixed by pipetting up and down five times. Fifty μL of the mixture in well 2 was removed and added to well 3 and mixed as above. Serial dilutions were continued in the same manner through well 12. Fifty μL was removed from well 12 so that all contained 50 μL. Fifty μL of the working inoculum was then added to all test wells. A growth control well was prepared by adding 50 μL of working inoculum and 50 μL of MHB to an empty well. The plates were then incubated at 37° C. overnight, removed from the incubator and each well was read on a plate reading mirror. The lowest concentration (MIC) of test compound that inhibited the growth of the bacteria was recorded.

[17] = system: Enterococcus faecium EF404 (blood isolate, tet(M)); experiment: MIC assay, EF404; format: cell-based
[18] = system: Staphylococcus aureus SA191 (HA-MRSA, tetracycline-resistant); experiment: MIC assay, SA191; format: cell-based; conditions: MRSA, read-out: MIC SA 191
[19] = system: Escherichia coli EC155 (tet(A)); experiment: MIC assay, EC155; format: cell-based; conditions: Escherichia coli, read-out: MIC EC 155 tetA
[20] = system: Klebsiella pneumoniae KP457 (2009 ESBL+, CTX-M, OXA); conditions: for MIC KP 457 CTX- M-15: K. pneumoniae ESBL+
KP 194 7E+05 = experiment: MIC assay, KP194; conditions: Table 5
Description: as §3, §4

SMILES: CN(C)c1cc(NC(=O)CNC(C)(C)C)c(O)c2c1C[C@H]1C[C@H]3[C@H](N(C)C)C(O)=C(C(N)=O)C(=O)[C@@]3(O)C(O)=C1C2=O [Tigecycline, tigecycline]
- MIC ([1]; read-out: MIC EF 327 tet M): 0.063 µg/mL (≈ 0.108 µM)
- MIC ([1]; read-out: MIC EF 327 tetM): 0.06 µg/mL (≈ 0.102 µM)
- MIC [2]: 32 µg/mL (≈ 54.6 µM)
- MIC ([2]; read-out: MIC PA 669): 32 µg/mL (≈ 54.6 µM)
- MIC ([3]; ATCC25922, read-out: MIC EC 07 25922, E. coli ATCC 25922, Table 7): 0.03 µg/mL (≈ 0.0512 µM)
- MIC ([3]; ATCC25922, read-out: MIC EC 107 259 22, E. coli ATCC 25922, Table 6): 0.03 µg/mL (≈ 0.0512 µM)
- MIC ([3]; ATCC25922, read-out: MIC EC 107 25922, E. coli ATCC 25922, Table 4): 0.031 µg/mL (≈ 0.0529 µM)
- MIC ([3]; ATCC25922, read-out: MIC EC 107 25922, E. coli ATCC 25922, Table 5): 0.03 µg/mL (≈ 0.0512 µM)
- MIC ([3]; ATCC25922, read-out: MIC EC 107 25922, control compounds): 0.03 µg/mL (≈ 0.0512 µM)
- MIC ([3]; ATCC25922, read-out: MIC EC 107 25922, control compounds, numeric): 0.03 µg/mL (≈ 0.0512 µM)
- MIC [4]: 0.25 µg/mL (≈ 0.427 µM)
- MIC (EC 880 ipxC; Table 6, read-out: MIC EC 880 ipx C): 0.015 µg/mL (≈ 0.0256 µM)
- MIC (EC 880 ipxC; Table 7, read-out: MIC EC 880 ipxC): 0.02 µg/mL (≈ 0.0341 µM)
- MIC (EC 882 imp; Table 6): 0.015 µg/mL (≈ 0.0256 µM)
- MIC (EC 882 imp; Table 7): 0.02 µg/mL (≈ 0.0341 µM)
- MIC [5]: 16 µg/mL (≈ 27.3 µM)
- MIC ([5]; read-out: MIC PA5 55 BAA- 47): 16 µg/mL (≈ 27.3 µM)
- MIC ([5]; read-out: MIC PA 555): 16 µg/mL (≈ 27.3 µM)
- MIC ([5]; read-out: MIC PA 555 BAA- 47): 16 µg/mL (≈ 27.3 µM)
- MIC ([5]; read-out: MIC PA 555 BAA-47): 16 µg/mL (≈ 27.3 µM)
- MIC ([6]; read-out: MIC PM 385): 4 µg/mL (≈ 6.83 µM)
- MIC ([6]; read-out: MIC PM 385 CTX-M15): 4 µg/mL (≈ 6.83 µM)
- MIC ([7]; read-out: MIC SA 101 292 13, S. aureus ATCC 29213, MSSA, Table 6): 0.063 µg/mL (≈ 0.108 µM)
- MIC ([7]; read-out: MIC SA 101 29213, S. aureus ATCC 29213, MSSA, Table 4): 0.063 µg/mL (≈ 0.108 µM)
- MIC ([7]; read-out: MIC SA 101 29213, S. aureus ATCC 29213, MSSA, Table 5): 0.0625 µg/mL (≈ 0.107 µM)
- MIC ([7]; read-out: MIC SA 101 29213, S. aureus ATCC 29213, MSSA, Table 7): 0.06 µg/mL (≈ 0.102 µM)
- MIC ([7]; read-out: MIC SA 101 29213, control compounds): 0.06 µg/mL (≈ 0.102 µM)
- MIC ([7]; read-out: MIC SA 101 29213, control compounds, numeric): 0.06 µg/mL (≈ 0.102 µM)
- MIC [8]: 0.016 µg/mL (≈ 0.0273 µM)
- MIC [9]: 0.25 µg/mL (≈ 0.427 µM)
- MIC ([10]; read-out: MIC EF 159 tetM, E. faecalis tet(M), Table 4): 0.063 µg/mL (≈ 0.108 µM)
- MIC ([10]; read-out: MIC EF 159 tetM, E. faecalis tet(M), Table 5): 0.06 µg/mL (≈ 0.102 µM)
- MIC [11]: 1 µg/mL (≈ 1.71 µM)
- MIC ([12]; MG1655, read-out: MIC EC 878 toIC, E. coli MG1655 tolC::kan, Table 6): 0.031 µg/mL (≈ 0.0529 µM)
- MIC ([12]; MG1655, read-out: MIC EC 878 toIC, E. coli MG1655 tolC::kan, Table 7): 0.03 µg/mL (≈ 0.0512 µM)
- MIC ([12]; MG1655, read-out: MIC EC 878 toIC, control compounds): 0.03 µg/mL (≈ 0.0512 µM)
- MIC ([12]; MG1655, read-out: MIC EC 878 tolC, control compounds, numeric): 0.03 µg/mL (≈ 0.0512 µM)
- MIC [13]: 8 µg/mL (≈ 13.7 µM)
- MIC [14]: 8 µg/mL (≈ 13.7 µM)
- MIC ([14]; read-out: MIC AB 250): 8 µg/mL (≈ 13.7 µM)
- MIC [15]: 0.063 µg/mL (≈ 0.108 µM)
- MIC ([16]; read-out: MIC SA 158 tetK, S. aureus tet(K), Table 4): 0.063 µg/mL (≈ 0.108 µM)
- MIC ([16]; read-out: MIC SA 158 tetK, S. aureus tet(K), Table 5): 0.06 µg/mL (≈ 0.102 µM)
- MIC ([16]; read-out: MIC SA 158 tetK, S. aureus tet(K), Table 6): 0.063 µg/mL (≈ 0.108 µM)
- MIC ([16]; read-out: MIC SA 158 tetK, S. aureus tet(K), Table 7): 0.06 µg/mL (≈ 0.102 µM)
- MIC ([16]; read-out: MIC SA 158 tetK, control compounds): 0.06 µg/mL (≈ 0.102 µM)
- MIC ([16]; read-out: MIC SA 158 tetK, control compounds, numeric): 0.06 µg/mL (≈ 0.102 µM)
- MIC (PA 884 35151): 0.063 µg/mL (≈ 0.108 µM)
- MIC ([17]; read-out: MIC EF 404 tet M): 0.031 µg/mL (≈ 0.0529 µM)
- MIC ([17]; read-out: MIC EF 404 tetM): 0.03 µg/mL (≈ 0.0512 µM)
- MIC [18]: 0.5 µg/mL (≈ 0.854 µM)
- MIC [19]: 0.5 µg/mL (≈ 0.854 µM)
- MIC KP 457 CTX- M-15 ([20]; Table 6): 1 µg/mL (≈ 1.71 µM)
- MIC KP 457 CTX- M-15 ([20]; Table 7): 1 µg/mL (≈ 1.71 µM)
- MIC KP 457 CTX-M-15 ([20]; control compounds): 1 µg/mL (≈ 1.71 µM)
- MIC KP 457 ([20]; control compounds, numeric): 1 µg/mL (≈ 1.71 µM)
- MIC KP 194 7E+05 (KP 194 7E+05): 8 μg/mL
